According to patent US11584714B2 (priority 2018, dated 2023):
Where a name gives a salt, the structure may show the parent alone. Read-outs that look alike come from different tables or passages of the source.

Assays:
Type in all cases: biochemical
MASP-2 (CCP1-CCP2-SP) = MASP-2 (CCP1-CCP2-SP) (Homo sapiens (Human), UniProt O00187); assay: biochemical
mMASP-2 = mMASP-2 (Mus musculus (Mouse), UniProt Q91WP0); assay: Enzymatic inhibition of mMASP-2
human α-thrombin = human α-thrombin (Homo sapiens (Human), UniProt P00734); assay: Enzymatic assay for thrombin (Boc-VPR-AMC substrate)
[1] = selectivity for MASP-2 inhibition versus thrombin
[2] = MASP-2 inhibition versus thrombin

MASP-2 (CCP1-CCP2-SP), sequence (O00187 445-686): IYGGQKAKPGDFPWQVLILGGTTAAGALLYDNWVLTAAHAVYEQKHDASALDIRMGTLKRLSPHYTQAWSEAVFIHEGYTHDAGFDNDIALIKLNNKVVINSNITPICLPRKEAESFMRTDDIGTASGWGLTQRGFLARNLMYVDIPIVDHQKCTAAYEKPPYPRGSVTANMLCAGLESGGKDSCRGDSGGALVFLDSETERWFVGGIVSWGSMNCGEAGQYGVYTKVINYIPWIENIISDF
mMASP-2, sequence (Q91WP0 20-685): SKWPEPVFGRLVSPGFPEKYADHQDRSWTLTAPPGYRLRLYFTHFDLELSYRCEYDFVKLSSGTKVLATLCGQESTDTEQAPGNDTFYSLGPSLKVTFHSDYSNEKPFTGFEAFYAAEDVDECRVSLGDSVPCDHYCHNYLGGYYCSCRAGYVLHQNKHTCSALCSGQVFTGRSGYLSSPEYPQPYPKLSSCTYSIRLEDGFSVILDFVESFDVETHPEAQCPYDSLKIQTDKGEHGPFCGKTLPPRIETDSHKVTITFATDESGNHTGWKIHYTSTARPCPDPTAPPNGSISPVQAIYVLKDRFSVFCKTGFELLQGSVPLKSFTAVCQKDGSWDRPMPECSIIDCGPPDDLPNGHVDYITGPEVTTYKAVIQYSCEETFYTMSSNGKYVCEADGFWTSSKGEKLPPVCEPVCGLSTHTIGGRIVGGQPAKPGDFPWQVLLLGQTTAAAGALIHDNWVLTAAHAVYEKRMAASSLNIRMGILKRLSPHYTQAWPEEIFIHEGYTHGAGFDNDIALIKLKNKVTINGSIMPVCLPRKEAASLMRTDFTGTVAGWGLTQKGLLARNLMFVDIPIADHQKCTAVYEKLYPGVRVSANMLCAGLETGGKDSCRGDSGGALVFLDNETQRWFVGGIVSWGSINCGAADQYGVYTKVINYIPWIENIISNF

| Structure (SMILES) | Ki (MASP-2 (CCP1-CCP2-SP); read-out: MASP-2 Ki) [µM] | MASP-2 vs. thrombin selectivity (MASP-2 (CCP1-CCP2-SP); [1]) | Ki (mMASP-2; read-out: mMASP-2 Ki) [µM] | Ki (human α-thrombin; read-out: Thrombin Ki) [µM] | Ki (human α-thrombin; Thrombin Ki (μM)) [µM] | Ki (MASP-2 (CCP1-CCP2-SP)) [µM] | MASP-2 vs. thrombin selectivity (MASP-2 (CCP1-CCP2-SP); [2]) | Ki (MASP-2 (CCP1-CCP2-SP); MASP-2 Ki (μM)) [µM] | Ki (mMASP-2) [µM] |
| --- | --- | --- | --- | --- | --- | --- | --- | --- | --- |
| C[C@H](NC(=O)[C@H]1C[C@H](Cc2ccc3ccccc3c2)CN1)C(=O)NCc1cc(Cl)ccc1-n1cnnn1 [compound 1385, (2R,4S)—N—((S)-1-((5-chloro-2-(1H-tetrazol-1-yl)benzyl)amino)-1-oxopropan-2-yl)-4-(naphthalen-2-ylmethyl)pyrrolidine-2-carboxamide Trifluoroacetate salt] | < 0.5 | ** (≥5.0 to <25-fold) | < 0.5 | < 0.5 | – | – | – | – | – |
| C[C@H](NC(=O)[C@H]1C[C@H](Cc2ccccc2Br)CN1)C(=O)NCc1cnc2c(c1)c(Cl)cn2C [compound 1482, (2R,4S)-4-(2-bromobenzyl)-N-((S)-1-(((3-chloro-1-methyl-1H-pyrrolo[2,3-b]pyridin-5-yl)methyl)amino)-1-oxopropan-2-yl)pyrrolidine-2-carboxamide Hydrochloride] | < 0.5 | *** (≥25 to <100-fold) | < 0.5 | – | 0.5 to 2.5 | – | – | – | – |
| C[C@H](NC(=O)[C@H]1C[C@H](Cc2ccc(-c3ccc(F)cc3C(N)=O)cc2)CN1)C(=O)NCc1cc(Cl)ccc1-n1cnnn1 [compound 1405, (2R,4S)-4-((2′-Carbamoyl-4′-fluoro-[1,1′-biphenyl]-4-yl)methyl)-N-((S)-1-((5-chloro-2-(1H-tetrazol-1-yl)benzyl)amino)-1-oxopropan-2-yl)pyrrolidine-2-carboxamide Hydrochloride] | < 0.5 | ** (≥5.0 to <25-fold) | 0.5 to 2.5 | – | 0.5 to 2.5 | – | – | – | – |
| Cc1nc(N)ccc1CNC(=O)[C@H](C)NC(=O)[C@H]1C[C@@H](Cc2ccccc2)CN1 [compound 1283, (2R,4R)—N—((S)-1-(((6-Amino-2-methylpyridin-3-yl)methyl)amino)-1-oxopropan-2-yl)-4-benzylpyrrolidine-2-carboxamide] | < 0.5 | *** (≥25 to <100-fold) | 0.5 to 2.5 | – | 2.5 to 10 | – | – | – | – |
| Cc1cc(Cl)cc(CNC(=O)[C@H](C)NC(=O)[C@H]2CN(c3cccc4ccccc34)CCN2)c1O [compound 1317, (R)—N—((S)-1-((5-Chloro-2-hydroxy-3-methylbenzyl)amino)-1-oxopropan-2-yI)-4-(naphthalen-1-yl)piperazine-2-carboxamide Hydrochloride] | < 0.5 | – | 0.5 to 2.5 | > 25 | – | – | – | – | – |
| Cc1cc(Cl)cc(CNC(=O)[C@H](C)NC(=O)[C@H]2C[C@H](Cc3ccccc3-c3ccccc3)CN2)c1O [compound 1401, (2R,4S)-4-([1,1′-Biphenyl]-2-ylmethyl)-N-((S)-1-((5-chloro-2-hydroxy-3-methylbenzyl)amino)-1-oxopropan-2-yl)pyrrolidine-2-carboxamide Hydrochloride] | < 0.5 | – | 0.5 to 2.5 | > 25 | – | – | – | – | – |
| C[C@H](NC(=O)[C@@H]1C[C@@H](Cc2ccccc2)CN1)C(=O)NCc1ccc(C(=N)N)cc1 [compound 1285, (2S,4R)-4-Benzyl-N-((S)-1-((4-carbamimidoylbenzyl)amino)-1-oxopropan-2-yl)pyrrolidine-2-carboxamide] | – | ** (≥5.0 to <25-fold) | 0.5 to 2.5 | – | 2.5 to 10 | 0.5 to 2.5 | – | – | – |
| COc1cccc(CC[C@@H](N)C(=O)N[C@@H](C)C(=O)NCc2ccc(C(=N)N)cc2)c1 [compound 1075] | < 0.5 | – | < 0.5 | < 0.5 | – | – | ** (5.0 to 25-fold) | – | – |
| C[C@H](NC(=O)[C@H](N)C/C=C/c1ccccc1)C(=O)NCc1ccc(N)nc1 [compound 1261, (R, E)-2-Amino-N—((S)-1-(((6-aminopyridin-3-yl)methyl)amino)-1-oxopropan-2-yl)-5-phenylpent-4-enamide] | – | * (≥1.0 to <5.0-fold) | 10 to 25 | > 25 | – | 10 to 25 | – | – | – |
| C[C@H](NC(=O)[C@H](CCc1ccccc1)NCc1c[nH]c2ccccc12)C(=O)NCc1ccc(C(=N)N)cc1 [compound 1223] | < 0.5 | – | < 0.5 | < 0.5 | – | – | *** (25 to 100-fold) | – | – |
| C[C@H](NC(=O)[C@H]1C[C@H](c2ccccc2)CN1)C(=O)NCc1cnc2sccc2c1 [compound 1471, (2R,4R)—N—((S)-1-oxo-1-((Thieno[2,3-b]pyridin-5-ylmethyl)amino)propan-2-yl)-4-phenylpyrrolidine-2-carboxamide Trifluoroacetate salt] | – | – | 2.5 to 10 | > 25 | – | 2.5 to 10 | – | – | – |
| Cc1nc2cc(CNC(=O)[C@H](C)NC(=O)[C@H]3C[C@H](c4ccccc4)CN3)cc(Cl)c2[nH]1 [compound 1418, (2R,4R)—N—((S)-1-(((7-Chloro-2-methyl-1H-benzo[d]imidazol-5-yl)methyl)amino)-1-oxopropan-2-yl)-4-phenylpyrrolidine-2-carboxamide Trifluoroacetate salt] | – | – | 10 to 25 | > 25 | – | 2.5 to 10 | – | – | – |
| C[C@H](NC(=O)[C@H]1C[C@H](c2ccccc2)CN1)C(=O)NCc1ccc(C(=N)NC(=O)OCC(Cl)(Cl)Cl)cc1 [compound 1288, 2,2,2-Trichloroethyl (imino(4-(((S)-2-((2R,4R)-4-phenylpyrrolidine-2-carboxamido)propanamido)methyl)phenyl)methyl)carbamate] | – | – | – | > 25 | – | – | – | 2.5 to 10 | 2.5 to 10 |
| Cc1nc(N)ccc1CNC(=O)[C@H](C)NC(=O)[C@H]1C[C@H](Cc2ccc(F)c(Cl)c2)CN1 [compound 1459, (2R,4S)—N—((S)-1-(((6-Amino-2-methylpyridin-3-yl)methyl)amino)-1-oxopropan-2-yl)-4-(3-chloro-4-fluorobenzyl)pyrrolidine-2-carboxamide Di-trifluoroacetate salt] | < 0.5 | **** (≥100-fold) | < 0.5 | – | 2.5 to 10 | – | – | – | – |
| CCN1C[C@@H](Cc2ccc(Cl)c(Br)c2)C[C@@H]1C(=O)N[C@@H](C)C(=O)NCc1ccc(N)nc1C [compound 1464, (2R,4S)—N—((S)-1-(((6-Amino-2-methylpyridin-3-yl)methyl)amino)-1-oxopropan-2-yl)-4-(3-bromo-4-chlorobenzyl)-1-ethylpyrrolidine-2-carboxamide] | < 0.5 | – | < 0.5 | > 25 | – | – | – | – | – |
| C[C@H](NC(=O)c1cc(-c2ccccc2)n[nH]1)C(=O)NCc1ccc(C(=N)N)cc1 [compound 1295, (S)—N-(1-((4-Carbamimidoylbenzyl)amino)-1-oxopropan-2-yl)-3-phenyl-1H-pyrazole-5-carboxamide] | < 0.5 | *** (≥25 to <100-fold) | < 0.5 | – | 2.5 to 10 | – | – | – | – |
| C[C@H](NC(=O)[C@H]1C[C@H](Cc2ccc(F)c(Cl)c2)CN1)C(=O)NCc1cnc2c(c1)c(Cl)cn2C [compound 1474, (2R,4S)—N—((S)-1-(((3-Chloro-1-methyl-1H-pyrrolo[2,3-b]pyridin-5-yl)methyl)amino)-1-oxopropan-2-yl)-4-(3-chloro-4-fluorobenzyl)pyrrolidine-2-carboxamide Trifluoroacetate salt] | < 0.5 | **** (≥100-fold) | < 0.5 | > 25 | – | – | – | – | – |
| C[C@H](NC(=O)[C@H]1C[C@H](c2ccccc2)CN1)C(=O)NCc1cnc2cccc(Cl)c2c1 [compound 1457, (2R,4R)—N—((S)-1-(((5-chloroquinolin-3-yl)methyl)amino)-1-oxopropan-2-yl)-4-phenylpyrrolidine-2-carboxamide] | – | – | 2.5 to 10 | > 25 | – | 10 to 25 | – | – | – |
| Cc1nc(N)ccc1CNC(=O)[C@H](C)NC(=O)[C@H](N)CCc1ccccc1 [compound 1245, (R)-2-Amino-N—((S)-1-(((6-amino-2-methylpyridin-3-yl)methyl)amino)-1-oxopropan-2-yl)-4-phenylbutanamide] | < 0.5 | **** (≥100-fold) | 10 to 25 | – | 10 to 25 | – | – | – | – |
| Cc1ccccc1CC[C@@H](N)C(=O)N[C@@H](C)C(=O)NCc1ccc(C(=N)N)cc1 [compound 1045] | < 0.5 | – | < 0.5 | < 0.5 | – | – | ** (5.0 to 25-fold) | – | – |
| Cc1nc(N)ccc1CNC(=O)[C@H](C)NC(=O)c1cc(Cc2ccccc2)n[nH]1 [compound 1367, (S)—N-(1-(((6-Amino-2-methylpyridin-3-yl)methyl)amino)-1-oxopropan-2-yl)-3-benzyl-1H-pyrazole-5-carboxamide] | < 0.5 | – | 10 to 25 | > 25 | – | – | – | – | – |
| Cc1nc(N)ccc1CNC(=O)[C@H](C)NC(=O)[C@H]1C[C@H](Cc2ccccc2-c2ccc(Cl)s2)CN1 [compound 1410, (2R,4S)—N—((S)-1-(((6-Amino-2-methylpyridin-3-yl)methyl)amino)-1-oxopropan-2-yl)-4-(2-(5-chlorothiophen-2-yl)benzyl)pyrrolidine-2-carboxamide Trifluoroacetate] | < 0.5 | *** (≥25 to <100-fold) | 0.5 to 2.5 | – | 0.5 to 2.5 | – | – | – | – |
